Measured values published in paper PMC6993007, “Protocol for bevacizumab purification using Ac-PHQGQHIGVSK-agarose” (MethodsX, 2019).

Tests used:
bevacizumab [1] = conditions: in words, Kd not given; ref [2]; cited from earlier work
Excerpt: Bevacizumab is a monoclonal antibody, produced in CHO cells, used for the treatment of many human cancers. It is an anti-vascular endothelial growth factor (antsi-VEGF) that blocks the growth of tumor blood vessels. Nowadays its purification is achieved by affinity chromatography (AC) using protein A which is a very expensive ligand. […] This short peptide ligand has higher stability and lower cost than protein A and it can be prepared very easily by solid phase peptide synthesis. The ...

bevacizumab [2] = assay: Bevacizumab purification by Ac-PHQGQHIGVSK-agarose affinity chromatography from the CHO cell culture; conditions: in words; mild elution conditions
Procedure: Material • Adsorption buffer: 20 mM sodium phosphate, pH 7.0, 1 M (NH4)2SO4 • A column containing 0.5 mL (0.5 × 2.5 cm) of Ac-PHQGQHIGVSK-agarose • Elution buffer: 20 mM sodium phosphate, pH 7.0 • Absorption UV/VIS spectrophotometer
Procedure • 1 Clarify the CHO cell culture containing bevacizumab by centrifugation or filtration. • 2 Add to the sample the amount of (NH4)2SO4 necessary to achieve a final concentration of 1 M. • 3 Equilibrate the chromatographic column containing Ac-PHQGQHIGVSK-agarose with 20 volumes of adsorption buffer. • 4 Load the column with CHO cell culture filtrate containing bevacizumab. Note: the amount of bevacizumab loaded to the column must be lower than the maximum capacity of the chromatographic matrix synthesized. • 5 Wash the column with adsorption buffer until the absorbance at 280 nm achieves the baseline value. • 6 Elute the bound protein by adding 20 mM sodium phosphate, pH 7.0. • 7 Measure total protein concentration with Bradford reagent using pure bevacizumab as the protein standard. • 8 Measure bevacizumab concentration by HPLC using a protein A analytical column as per Zou et al.. • 9 Perform sodium dodecyl sulfate polyacrylamide gel electrophoresis (SDS-PAGE) (12.5 % under reductive conditions) as described by Laemmli and stain gels with Coomassie Blue following the standard procedure.

| Substance | affinity for bevacizumab (bevacizumab [1]) | integrity of bevacizumab (mAb) (bevacizumab [2]) |
| --- | --- | --- |
| Ac-PHQGQHIGVSK-NH2 | binds bevacizumab with high affinity | – |
| bevacizumab: anti-vascular endothelial growth factor (anti-VEGF) monoclonal antibody, produced in CHO cells | – | preserve the integrity |
